In publication PMC5003509 (Journal of Medicinal Chemistry, 2015):

What was measured:
[1] = Metabolic stability in mouse liver microsomes, glucuronidation; assay type: in vitro ADME; settings: in the presence of UDPGA
[2] = In vivo pharmacokinetics in CD1 mice; settings: male, CD1, mouse, plasma, iv, 10 mg/kg
[3] = Metabolic stability in mouse liver microsomes, CYP-mediated; assay type: in vitro ADME; settings: cofactor for CYP-dependent oxidation
[4] = test system: NMDA receptor (phencyclidine); experiment: NMDA receptor; assay type: binding; settings: at 10 μM
NMDA receptor (MK801) = experiment: NMDA receptor; assay type: binding; settings: at 10 μM
NMDA receptor (agonist) = experiment: NMDA receptor; assay type: binding; settings: at 10 μM
hERG channel = hERG channel (Homo sapiens, UniProt Q12809); experiment: hERG channel assay; settings: concentrations up to 25 μM
[5] = test system: glycine receptor (strychnine sensitive); experiment: Glycine receptor; assay type: binding; settings: at 10 μM
recombinant human DAAO = recombinant human DAAO (Homo sapiens, UniProt P14920); experiment: In vitro DAAO assay; assay type: biochemical
[6] = test system: Salmonella typhimurium strain (TA100); experiment: Ames test; assay type: cell-based; settings: TA100, in the presence or absence of metabolic activation by S9 mixture
[7] = Effect on plasma pharmacokinetics of oral D-serine in mice; settings: 11h (30 mg/kg, po) with D-serine (30 mg/kg, po)

Sequence of recombinant human DAAO (P14920 whole entry): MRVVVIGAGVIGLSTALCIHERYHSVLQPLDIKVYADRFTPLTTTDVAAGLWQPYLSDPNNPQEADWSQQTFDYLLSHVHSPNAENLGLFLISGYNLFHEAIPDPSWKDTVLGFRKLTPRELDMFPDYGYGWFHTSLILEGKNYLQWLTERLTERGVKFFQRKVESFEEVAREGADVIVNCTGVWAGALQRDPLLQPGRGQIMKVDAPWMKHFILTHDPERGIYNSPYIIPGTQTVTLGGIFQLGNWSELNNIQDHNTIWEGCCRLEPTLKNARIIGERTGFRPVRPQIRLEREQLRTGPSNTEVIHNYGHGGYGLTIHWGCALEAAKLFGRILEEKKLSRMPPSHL
Sequence of hERG channel (Q12809 whole entry): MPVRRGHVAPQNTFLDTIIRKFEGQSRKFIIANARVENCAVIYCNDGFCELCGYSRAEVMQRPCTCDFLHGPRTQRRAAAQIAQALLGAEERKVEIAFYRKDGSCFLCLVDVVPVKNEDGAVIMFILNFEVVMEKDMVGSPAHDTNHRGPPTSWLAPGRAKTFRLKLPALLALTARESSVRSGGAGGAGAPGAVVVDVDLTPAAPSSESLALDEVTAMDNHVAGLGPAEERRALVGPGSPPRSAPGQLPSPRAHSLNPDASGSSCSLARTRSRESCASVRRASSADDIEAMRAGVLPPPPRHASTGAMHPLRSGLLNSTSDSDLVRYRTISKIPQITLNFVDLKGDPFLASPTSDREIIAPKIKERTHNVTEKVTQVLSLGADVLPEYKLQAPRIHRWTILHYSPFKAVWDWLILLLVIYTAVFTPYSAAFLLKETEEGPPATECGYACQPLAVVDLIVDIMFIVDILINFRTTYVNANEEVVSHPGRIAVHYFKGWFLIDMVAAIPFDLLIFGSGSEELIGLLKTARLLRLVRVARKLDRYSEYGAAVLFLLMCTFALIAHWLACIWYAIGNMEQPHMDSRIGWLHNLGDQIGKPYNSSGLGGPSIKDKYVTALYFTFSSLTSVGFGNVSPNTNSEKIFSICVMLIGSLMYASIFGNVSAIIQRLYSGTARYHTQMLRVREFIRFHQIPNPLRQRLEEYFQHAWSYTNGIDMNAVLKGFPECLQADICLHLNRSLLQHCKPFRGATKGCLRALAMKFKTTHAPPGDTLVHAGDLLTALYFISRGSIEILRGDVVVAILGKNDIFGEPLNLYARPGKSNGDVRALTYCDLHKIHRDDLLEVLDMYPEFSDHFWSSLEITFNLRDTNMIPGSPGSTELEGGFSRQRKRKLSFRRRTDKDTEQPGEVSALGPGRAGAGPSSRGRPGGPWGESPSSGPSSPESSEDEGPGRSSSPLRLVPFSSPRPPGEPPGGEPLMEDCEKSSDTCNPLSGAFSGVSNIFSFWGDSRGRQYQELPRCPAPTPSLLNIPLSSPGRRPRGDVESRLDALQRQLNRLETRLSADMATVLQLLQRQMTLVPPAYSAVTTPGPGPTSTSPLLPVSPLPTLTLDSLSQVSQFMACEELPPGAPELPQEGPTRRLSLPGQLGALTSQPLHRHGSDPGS

With `O=c1[nH]nc(CCc2cc(F)cc(F)c2)cc1O` [8b, reference compound] the “glucuronidation in mouse liver microsomes” value (from here on “glucuronidation”) [1] was “some resistance to glucuronidation” and the AUC(0-t) [2] was 12700 ng·h/mL.

With `O=c1[nH]c(=O)n(CCc2ccccc2)nc1O` [11e, 6-Hydroxy-2-phenethyl-1,2,4-triazine-3,5(2H,4H)-dione] the “stability in mouse liver microsomes in the presence of NADPH” value [3] was “stable” and the “glucuronidation” value [1] was “completely resistant to glucuronidation”.

In the case of `O=c1[nH]c(=O)n(Cc2cccc3ccccc23)nc1O` [11h, 6-Hydroxy-2-(naphthalen-1-ylmethyl)-1,2,4-triazine-3,5(2H,4H)-dione], the “inhibition, NMDA receptor (phencyclidine)” value [4] was no more than 5% inhibition at 10 μM, the “stability in mouse liver microsomes in the presence of NADPH” value [3] was “stable” and the “inhibition, NMDA receptor (MK801)” value (NMDA receptor (MK801)) was no more than 5% inhibition at 10 μM. The “inhibition, NMDA receptor (agonist)” value (NMDA receptor (agonist)) was no more than 5% inhibition at 10 μM, the “glucuronidation” value [1] was “completely resistant to glucuronidation” and the hERG channel inhibition (hERG channel) was “no inhibition at concentrations up to 25 μM”. The “inhibition, glycine receptor (strychnine sensitive)” value [5] was no more than 5% inhibition at 10 μM, the “effect of FAD concentration on IC50” value (recombinant human DAAO; escalation of FAD concentration from 10 to 100 μM) was “did not affect IC50 value” and the mode of inhibition (recombinant human DAAO; versus D-serine, double reciprocal plot) was “competitive inhibition”. For the same compound, the mutagenicity [6] was “No evidence of mutagenicity” and the “effect on plasma clearance of D-serine” value [7] was “substantially reduced”.

With `O=c1cc(CSc2ccc(Cl)c(Cl)c2)occ1O` [compound 7, reference compound] the “glucuronidation” value [1] was “extensively glucuronidated”.

With `O=c1[nH]c(=S)n(CCc2ccccc2)nc1O` [compound 30, 6-Hydroxy-2-phenethyl-3-thioxo-3,4-dihydro-1,2,4-triazin-5(2H)-one] the “glucuronidation” value [1] was “metabolically stable against glucuronidation”.

For `O=c1[nH]c(=O)n(CCc2ccccc2)cc1O` [compound 32, 5-Hydroxy-1-phenethylpyrimidine-2,4(1H,3H)-dione], the “glucuronidation” value [1] was “fully glucuronidated within 60 min”.
